Measurements taken from ChEMBL document CHEMBL1201862, “PubChem BioAssay data set” (2004).
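All cell lines were grown in 96-well plates and treated with compound for 48 hours. The concentration for 50% growth inhibition is given as GI50.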 Activity calls are given as the source filed them. No stated cut-off is given here; in the data, active = GI50 up to about 1.1 µM and inactive = higher.

How the values were obtained:
Assay in all cases: inhibition of tumour cell growth, NCI panel, 48 h
HL-60 = test system: HL-60
HCC 2998 = test system: HCC 2998
MOLT-4 = test system: MOLT-4
RPMI-8226 = test system: RPMI-8226
BT-549 = test system: BT-549
SK-MEL-5 = test system: SK-MEL-5
ACHN = test system: ACHN
HCT-15 = test system: HCT-15
OVCAR-3 = test system: OVCAR-3
DU-145 = test system: DU-145
MCF7 = test system: MCF7
786-0 = test system: 786-0
NCI-H226 = test system: NCI-H226
MDA-MB-435 = test system: MDA-MB-435
Hs-578T = test system: Hs-578T
HOP-62 = test system: HOP-62
SNB-19 = test system: SNB-19
RXF 393 = test system: RXF 393
PC-3 = test system: PC-3
SK-MEL-2 = test system: SK-MEL-2

Row | SMILES | GI50 (HL-60) | GI50 (HCC 2998) | GI50 (MOLT-4) | GI50 (RPMI-8226) | GI50 (BT-549) | GI50 (SK-MEL-5) | GI50 (ACHN) | GI50 (HCT-15) | GI50 (OVCAR-3) | GI50 (DU-145) | GI50 (MCF7) | GI50 (786-0) | GI50 (NCI-H226) | GI50 (MDA-MB-435) | GI50 (Hs-578T) | GI50 (HOP-62) | GI50 (SNB-19) | GI50 (RXF 393) | GI50 (PC-3) | GI50 (SK-MEL-2)
1 | CC(C)(C)OC(=O)N1CCCC1=O | > 10 µM (inactive) | > 10 µM (inactive) | > 10 µM (inactive) | > 10 µM (inactive) | > 10 µM (inactive) | > 10 µM (inactive) | > 10 µM (inactive) | > 10 µM | > 10 µM (inactive) | > 10 µM (inactive) | > 10 µM (inactive) | > 10 µM (inactive) | > 10 µM (inactive) | > 10 µM (inactive) | > 10 µM (inactive) | > 10 µM (inactive) | > 10 µM (inactive) | > 10 µM (inactive) | > 10 µM (inactive) | > 10 µM (inactive)
2 | CC1(C)OC(=O)N(c2ccccc2)C12C=Cc1cccc([N+](=O)[O-])c1O2 (stereo not given) | 17.5 µM (inactive) | > 100 µM (inactive) | 15.1 µM (inactive) | 53.3 µM (inactive) | > 100 µM (inactive) | 72.8 µM (inactive) | > 100 µM (inactive) | 90.2 µM | > 100 µM (inactive) | > 100 µM (inactive) | 79.3 µM (inactive) | > 100 µM (inactive) | > 100 µM (inactive) | 33 µM (inactive) | 73.6 µM (inactive) | > 100 µM (inactive) | > 100 µM (inactive) | > 100 µM (inactive) | 31 µM (inactive) | > 100 µM (inactive)
3 | Cc1ccc(-c2c3c(n(C4OC(CO)C(O)C(O)C4O)c(=S)c2C#N)CC(C)(C)CC3=O)cc1 (stereo not given) | 41.5 µM (inactive) | > 100 µM (inactive) | 36.5 µM (inactive) | 32.7 µM (inactive) | 50 µM (inactive) | 34.6 µM (inactive) | 65.5 µM (inactive) | 45.9 µM | > 100 µM (inactive) | > 100 µM (inactive) | 45.7 µM (inactive) | 47.4 µM (inactive) | 48.6 µM (inactive) | 65.2 µM (inactive) | 70.6 µM (inactive) | > 100 µM (inactive) | > 100 µM (inactive) | > 100 µM (inactive) | 41.1 µM (inactive) | 80.9 µM (inactive)
4 | O=C1Nc2ccc(Br)cc2C1=Nc1cccnc1 | 11.8 µM (inactive) | 20.6 µM (inactive) | 22.5 µM (inactive) | 21.4 µM (inactive) | 17.1 µM (inactive) | 17.8 µM (inactive) | 18.3 µM (inactive) | 22.1 µM | 18.9 µM (inactive) | 33 µM (inactive) | 22.7 µM (inactive) | 20.5 µM (inactive) | 31.4 µM (inactive) | 13 µM (inactive) | 19.9 µM (inactive) | 25 µM (inactive) | 41.2 µM (inactive) | 15.2 µM (inactive) | 18.1 µM (inactive) | 23.4 µM (inactive)
5 | CCCCC/C(=N\c1[nH]nnc1C(N)=O)OCC | > 100 µM (inactive) | > 100 µM (inactive) | > 100 µM (inactive) | > 100 µM (inactive) | > 100 µM (inactive) | > 100 µM (inactive) | > 100 µM (inactive) | > 100 µM | > 100 µM (inactive) | > 100 µM (inactive) | > 100 µM (inactive) | > 100 µM (inactive) | > 100 µM (inactive) | > 100 µM (inactive) | > 100 µM (inactive) | > 100 µM (inactive) | > 100 µM (inactive) | > 100 µM (inactive) | > 100 µM (inactive) | > 100 µM (inactive)
6 | COC(=O)[C@@H]1C[C@@H](O)CN1C(=O)c1ccc([N+](=O)[O-])cc1[N+](=O)[O-] | > 100 µM (inactive) | > 100 µM (inactive) | > 100 µM (inactive) | > 100 µM (inactive) | > 100 µM (inactive) | 96.6 µM (inactive) | > 100 µM (inactive) | > 100 µM | 39.2 µM (inactive) | > 100 µM (inactive) | > 100 µM (inactive) | > 100 µM (inactive) | > 100 µM (inactive) | > 100 µM (inactive) | > 100 µM (inactive) | > 100 µM (inactive) | > 100 µM (inactive) | > 100 µM (inactive) | > 100 µM (inactive) | > 100 µM (inactive)
7 | CCN1C(=O)CS/C1=N\NC(=O)CSc1nc2ccccc2c(=O)n1CC | 96.4 µM (inactive) | > 100 µM (inactive) | > 100 µM (inactive) | > 100 µM (inactive) | > 100 µM (inactive) | > 100 µM (inactive) | > 100 µM (inactive) | > 100 µM | > 100 µM (inactive) | > 100 µM (inactive) | > 100 µM (inactive) | > 100 µM (inactive) | > 100 µM (inactive) | > 100 µM (inactive) | > 100 µM (inactive) | > 100 µM (inactive) | > 100 µM (inactive) | 65.9 µM (inactive) | > 100 µM (inactive) | > 100 µM (inactive)
8 | S=C1Cc2c(-c3ccccc3)cc(-c3ccc(Cl)cc3)nc2-c2ccccc2N1 | 16.9 µM (inactive) | 5.07 µM (inactive) | 3.79 µM (inactive) | > 100 µM (inactive) | 5.56 µM (inactive) | 3.47 µM (inactive) | 1.04 µM (active) | 6.84 µM | 3.07 µM (inactive) | 13 µM (inactive) | 15.1 µM (inactive) | 1.08 µM (active) | 2.9 µM (inactive) | 4.79 µM (inactive) | 1.32 µM (inactive) | 1.39 µM (inactive) | 1.56 µM (inactive) | 3.06 µM (inactive) | 6.14 µM (inactive) | 6.85 µM (inactive)
9 | CN(C)c1ccc(/N=N\c2cccc3ncccc23)cc1 | 12.8 µM (inactive) | 0.302 µM (active) | 26.2 µM (inactive) | 18.1 µM (inactive) | 65.5 µM (inactive) | 20.4 µM (inactive) | 35.6 µM (inactive) | 51.9 µM | 22.9 µM (inactive) | 75.7 µM (inactive) | 0.063 µM (active) | > 80.4 µM (inactive) | > 72.3 µM (inactive) | 29.4 µM (inactive) | 44.7 µM (inactive) | 93.5 µM (inactive) | > 58.1 µM (inactive) | > 100 µM (inactive) | 42.6 µM (inactive) | > 100 µM (inactive)
10 | COc1cc(NS(C)(=O)=O)ccc1Nc1c2ccccc2nc2c1[nH]c1ccc(NC3OC(CO)C(O)C(O)C3O)cc12 (stereo not given) | 0.0153 µM (active) | 0.169 µM (active) | < 0.01 µM (active) | 0.0973 µM (active) | 1.3 µM (inactive) | 0.0859 µM (active) | < 0.0161 µM (active) | 0.152 µM | 0.538 µM (active) | 0.0281 µM (active) | 0.023 µM (active) | 0.0246 µM (active) | < 0.0181 µM (active) | 0.798 µM (active) | 0.518 µM (active) | < 0.0163 µM (active) | 0.0242 µM (active) | 0.144 µM (active) | 0.0908 µM (active) | 0.269 µM (active)
11 | O=[N+]([O-])/C(C(Cl)=C(Cl)Cl)=C(/Sc1ccccc1)N1CCCCC1 | 2.24 µM (inactive) | > 100 µM (inactive) | 3.52 µM (inactive) | > 100 µM (inactive) | > 100 µM (inactive) | 24.5 µM (inactive) | > 100 µM (inactive) | > 100 µM | > 63.7 µM (inactive) | > 53.2 µM (inactive) | > 100 µM (inactive) | 31.8 µM (inactive) | > 100 µM (inactive) | > 36.7 µM (inactive) | 67 µM (inactive) | > 59.3 µM (inactive) | > 58.7 µM (inactive) | 5.08 µM (inactive) | > 75.9 µM (inactive) | 2.44 µM (inactive)
